From US20240166645A1, “PYRIDOPYRIMIDINONE DERIVATIVE, PREPARATION METHOD THEREFOR, AND USE THEREOF” (Wuhan Humanwell Innovative Drug Research and Development …, priority 2021, published 2024) come the findings set out here.

Where two headings read alike, the source gives them in different places.

One data set addresses CYP3A4 (Homo sapiens (Human), UniProt P08684). Briefly: Inhibition test on cytochrome P450 subtype CYP3A4. Particulars: compound 10 μM, human liver microsomes. Format: in vitro ADME. The method, then: The inhibitory potential of compounds on cytochrome P450 (CYP450) subtype CYP3A4 (two substrates of midazolam and testosterone) was detected. First, the compound to be tested was prepared into a 10 mM stock solution in DMSO solvent, and the CYP3A4 inhibitor ketoconazole was prepared as 10 mM, 2.5 mM and 2.5 mM stock solutions in DMSO solvent. The test compound and ketoconazole were diluted to 400-fold final concentration (compound: 10 μM, ketoconazole: 2.5 μM) with acetonitrile.
NADPH cofactor (10 mL of potassium phosphate buffer added with 66.7 mg NADPH) at 4-fold final concentration and substrates were prepared with potassium phosphate buffer (0.1 M, pH=7.4), with CYP3A4 substrate midazolam at a final concentration of […] and CYP3A4 substrate testosterone at a final concentration of 20 μM.
A human liver microsome solution at a concentration of 0.2 mg/mL was prepared with potassium phosphate buffer on ice. A solution of the compound to be tested and a control inhibitor (control compound) solution at 2-fold final concentration were prepared with the human liver microsome solution on ice. The test wells were added with […] of the test compound solution and the control inhibitor solution respectively, and then added with […] of the substrate for duplication. A 96-well assay plate and a NADPH solution were incubated at 37° C. for 5 min, and 15 μL of pre-heated 8 mM NADPH solution was added to the assay plate to initiate the reaction. A CYP3A4 assay plate was pre-incubated at 37° C. for 5 min. The plate was added with 120 μL of acetonitrile to terminate the reaction, and after quenching, the plate was shaken on a shaker (IKA, MTS 2/4) for 10 min (600 rpm/min), and then centrifuged for 15 min. After centrifugation, the supernatant was collected, and added with purified water in a ratio of 1:1 to perform LC-MS/MS detection. A ratio of a peak area of compound to a peak area of internal standard was obtained, and the peak area ratio of the compound was compared with the peak area ratio of the control inhibitor to calculate the inhibition rate.

The test system of the next data set is H358 cells. Description: Inhibition of 3D cell proliferation (3D CellTiter-Glo). Format: cell-based. Particulars: Homo sapiens, NCI-H358, 168 h, read-out: IC50 (nM), inhibition of 3D proliferation of H358 cells, 7 days. The method, then: H358 cells were seeded in a T75 culture flask and cultured in a RPMI 1640 medium containing 10% FBS for 2 days for subsequent experiments in which the cells would be cultured or seeded on a 384-well plate.
On day 1, the cells were seeded on the 384-well plate, with 40 μL of medium added per well and serially diluted compounds or DMSO added per well, and an additional well without seeded cells but with medium was set up as a blank control. After culture at 37° C., 5% CO2 for 7 days, the plate was added with 3D CellTiter-Glo reagent (Promega, Cat. No. G9683) on day 8, shaken at 320 rpm for 20 min, and left at room temperature for 2 h. Luminescence signals were read on a multifunctional microplate reader. Cell viability inhibition rate was calculated as:
Cell viability inhibition rate=(DMSO group−test compound)/(DMSO group−blank control group)×100%
IC50 values were calculated using Graphpad 5 software.

Data set [1] is described as follows: Pharmacokinetic test in mice. As to conditions: mouse, plasma; male ICR mice, oral gavage, 10 mg/kg. Format: in vivo. The method, then:
Male ICR mice (20 to 25 g) were used and fasted overnight. Three mice were taken and orally administered by gavage (10 mg/kg). Blood was collected before the administration, and at 15 min, 30 min, 1 h, 2 h, 4 h, 8 h and 24 h after the administration. 6,800 g of the blood samples were centrifuged at 2 to 8° C. for 6 min, and plasma was collected and stored at −80° C. The plasma at each time point was taken and added with an acetonitrile solution containing internal standard in 3 to 5 times the amount, vortexed and mixed for 1 min, and centrifuged at 13,000 rpm/min at 4° C. for 10 min. The supernatant was collected, added with water in 3 times the amount, and mixed. An appropriate amount of the mixture was taken for LC-MS/MS analysis. The main pharmacokinetic parameters were analyzed using WinNonlin 7.0 software with non-compartmental model.

The mark [2] stands for this setting: pH 7.4, probe midazolam, substrate midazolam, read-out: CYP inhibition rate (%) CYP3A4 (midazolam).
Where [3] appears, read: pH 7.4, probe testosterone, substrate testosterone, read-out: CYP inhibition rate (%) CYP3A4 (testosterone).

Chain of CYP3A4 (P08684 whole entry): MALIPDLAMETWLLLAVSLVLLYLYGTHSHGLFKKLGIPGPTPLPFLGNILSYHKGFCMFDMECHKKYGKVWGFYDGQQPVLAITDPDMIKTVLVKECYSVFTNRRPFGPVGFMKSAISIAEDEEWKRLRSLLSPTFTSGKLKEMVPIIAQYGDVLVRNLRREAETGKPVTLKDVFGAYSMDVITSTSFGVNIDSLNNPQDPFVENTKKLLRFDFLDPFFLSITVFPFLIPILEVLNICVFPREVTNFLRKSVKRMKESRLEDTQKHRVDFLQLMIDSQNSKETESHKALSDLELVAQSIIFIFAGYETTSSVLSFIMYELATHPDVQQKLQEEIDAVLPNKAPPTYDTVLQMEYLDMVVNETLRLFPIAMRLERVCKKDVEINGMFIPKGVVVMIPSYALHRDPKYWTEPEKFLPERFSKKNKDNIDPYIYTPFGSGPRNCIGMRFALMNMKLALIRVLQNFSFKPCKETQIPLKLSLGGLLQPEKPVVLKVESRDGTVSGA

`Cc1nc(N[C@H](C)c2cccc(S(=O)(=O)C(F)F)c2C)c2cn(C3(CF)CC3)c(=O)cc2n1` [Compound I-1, (R)-4-((1-(3-((difluoromethyl)sulfonyl)-2-methylphenyl)ethyl)amino)-6-(1-(fluoromethyl)cyclopropyl)-2-methylpyrido[4,3-d]pyrimidin-7(6H)-one]: the inhibition at 5 min, 10 µM was determined as 17.8% at CYP3A4 (setting [2]) and 0% on CYP3A4 (setting [3]). Besides, in the data set with H358 cells, the IC50 was found to be 26 nM.
`Cc1nc(N[C@H](C)c2cccc(S(=O)(=O)C(F)(F)F)c2F)c2cn(C3(CF)CC3)c(=O)cc2n1` [Compound I-2, (R)-4-((1-(2-fluoro-3-((trifluoromethyl)sulfonyl)phenyl)ethyl)amino)-6-(1-(fluoromethyl)cyclopropyl)-2-methylpyrido[4,3-d]pyrimidin-7(6H)-one]: in data set [1], the AUC(0-t) was determined as 517 ng·h/mL, the concentration peaked (Cmax) at 256 ng/mL, the Tmax turned out to be 30 min and the half-life is 59.4 min. On CYP3A4 (setting [2]), the inhibition at 5 min, 10 µM was found to be 10.8%. Moreover, the inhibition at 5 min, 10 µM on CYP3A4 (setting [3]) worked out at 0%. The IC50 in the data set on H358 cells amounted to 13.9 nM.
